From ChEMBL document CHEMBL3813616, “Discovery of novel 7-azaindoles as PDK1 inhibitors” (Bioorg Med Chem Lett, 2016)

Tests used:
[1] = target: Homeodomain-interacting protein kinase 3 (Homo sapiens) (UniProt Q9H422); experiment: Inhibition of human HIPK3 (161 to 562 residues) assessed as enzyme activity at 1 uM using 33P ATP by radioactive filter binding assay; parameters: scale not given: the % may be the effect or the level left
[2] = target: Mitogen-activated protein kinase 10 (Homo sapiens) (UniProt P53779); experiment: Inhibition of human JNK3alpha1 assessed as enzyme activity at 1 uM using 33P ATP by radioactive filter binding assay; parameters: scale not given: the % may be the effect or the level left
Sequence of Mitogen-activated protein kinase 10 (Homo sapiens) (P53779 whole entry, the tested form may be a part): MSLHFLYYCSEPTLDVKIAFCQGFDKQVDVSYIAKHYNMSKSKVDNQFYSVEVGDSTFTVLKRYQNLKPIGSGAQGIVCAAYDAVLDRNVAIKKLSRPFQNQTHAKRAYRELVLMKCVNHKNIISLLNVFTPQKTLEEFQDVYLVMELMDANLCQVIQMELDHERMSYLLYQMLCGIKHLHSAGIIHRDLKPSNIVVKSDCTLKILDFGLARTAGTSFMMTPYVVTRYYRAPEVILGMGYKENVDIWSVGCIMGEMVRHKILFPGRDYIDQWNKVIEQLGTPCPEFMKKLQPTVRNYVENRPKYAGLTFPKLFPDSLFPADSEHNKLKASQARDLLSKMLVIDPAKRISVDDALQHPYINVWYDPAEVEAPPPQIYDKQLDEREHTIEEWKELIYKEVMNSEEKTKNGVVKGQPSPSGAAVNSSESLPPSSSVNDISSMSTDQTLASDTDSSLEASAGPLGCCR

[3] = target: MAP kinase-activated protein kinase 2 (Homo sapiens) (UniProt P49137); experiment: Inhibition of human MAPKAPK2 (46 to 400 residues) assessed as enzyme activity at 1 uM using 33P ATP by radioactive filter binding assay; parameters: scale not given: the % may be the effect or the level left
Sequence of MAP kinase-activated protein kinase 2 (Homo sapiens) (P49137 whole entry, looked up, the tested form may be a part): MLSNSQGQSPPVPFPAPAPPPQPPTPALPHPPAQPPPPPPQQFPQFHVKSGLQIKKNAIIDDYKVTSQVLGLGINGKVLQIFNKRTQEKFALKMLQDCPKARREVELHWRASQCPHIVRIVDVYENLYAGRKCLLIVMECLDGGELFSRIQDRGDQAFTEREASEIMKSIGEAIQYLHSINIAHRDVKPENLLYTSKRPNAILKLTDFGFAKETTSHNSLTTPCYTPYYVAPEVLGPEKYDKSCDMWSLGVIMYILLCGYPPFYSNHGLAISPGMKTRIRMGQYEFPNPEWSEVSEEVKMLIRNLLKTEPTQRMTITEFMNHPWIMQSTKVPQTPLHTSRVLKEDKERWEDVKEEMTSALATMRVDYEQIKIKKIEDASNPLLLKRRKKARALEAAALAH

[4] = target: MAP kinase-activated protein kinase 3 (Homo sapiens) (UniProt Q16644); experiment: Inhibition of human MAPKAPK3 (2 to 382 residues) assessed as enzyme activity at 1 uM using 33P ATP by radioactive filter binding assay; parameters: scale not given: the % may be the effect or the level left
Sequence of MAP kinase-activated protein kinase 3 (Homo sapiens) (Q16644 whole entry, looked up, the tested form may be a part): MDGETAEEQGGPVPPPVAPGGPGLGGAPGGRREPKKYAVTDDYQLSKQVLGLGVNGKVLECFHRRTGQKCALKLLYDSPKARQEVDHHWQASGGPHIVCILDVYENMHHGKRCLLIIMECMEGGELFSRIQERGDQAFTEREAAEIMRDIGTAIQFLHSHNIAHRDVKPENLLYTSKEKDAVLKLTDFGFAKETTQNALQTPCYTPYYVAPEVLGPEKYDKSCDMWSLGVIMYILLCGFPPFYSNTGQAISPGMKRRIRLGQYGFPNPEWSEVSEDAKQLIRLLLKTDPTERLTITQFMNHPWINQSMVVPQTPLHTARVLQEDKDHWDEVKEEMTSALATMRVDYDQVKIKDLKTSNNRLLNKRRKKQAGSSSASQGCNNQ

[5] = target: Serine/threonine-protein kinase Nek7 (Homo sapiens) (UniProt Q8TDX7); experiment: Inhibition of NEK7 (unknown origin) assessed as enzyme activity at 1 uM using 33P ATP by radioactive filter binding assay; parameters: scale not given: the % may be the effect or the level left
Sequence of Serine/threonine-protein kinase Nek7 (Homo sapiens) (Q8TDX7 whole entry, looked up, the tested form may be a part): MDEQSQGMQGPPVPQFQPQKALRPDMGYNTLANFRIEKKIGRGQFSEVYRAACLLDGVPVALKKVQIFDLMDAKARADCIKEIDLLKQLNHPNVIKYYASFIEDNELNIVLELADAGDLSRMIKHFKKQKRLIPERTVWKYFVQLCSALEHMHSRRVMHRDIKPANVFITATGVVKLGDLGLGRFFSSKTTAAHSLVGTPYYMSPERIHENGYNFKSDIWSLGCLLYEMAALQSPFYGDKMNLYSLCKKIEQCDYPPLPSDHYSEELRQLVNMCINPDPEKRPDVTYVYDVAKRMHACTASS

[6] = target: cAMP-dependent protein kinase catalytic subunit alpha (Homo sapiens) (UniProt P17612); experiment: Inhibition of human PKA alpha (2 to 351 residues) assessed as enzyme activity at 1 uM using 33P ATP by radioactive filter binding assay; parameters: scale not given: the % may be the effect or the level left
[7] = target: T1, 3-phosphoinositide-dependent protein kinase 1 (Homo sapiens, UniProt O15530); experiment: Inhibition of human His6-tagged PDK1 using biotinylated PDKtide as substrate after 60 mins by topcount method
T1 sequence (O15530 whole entry): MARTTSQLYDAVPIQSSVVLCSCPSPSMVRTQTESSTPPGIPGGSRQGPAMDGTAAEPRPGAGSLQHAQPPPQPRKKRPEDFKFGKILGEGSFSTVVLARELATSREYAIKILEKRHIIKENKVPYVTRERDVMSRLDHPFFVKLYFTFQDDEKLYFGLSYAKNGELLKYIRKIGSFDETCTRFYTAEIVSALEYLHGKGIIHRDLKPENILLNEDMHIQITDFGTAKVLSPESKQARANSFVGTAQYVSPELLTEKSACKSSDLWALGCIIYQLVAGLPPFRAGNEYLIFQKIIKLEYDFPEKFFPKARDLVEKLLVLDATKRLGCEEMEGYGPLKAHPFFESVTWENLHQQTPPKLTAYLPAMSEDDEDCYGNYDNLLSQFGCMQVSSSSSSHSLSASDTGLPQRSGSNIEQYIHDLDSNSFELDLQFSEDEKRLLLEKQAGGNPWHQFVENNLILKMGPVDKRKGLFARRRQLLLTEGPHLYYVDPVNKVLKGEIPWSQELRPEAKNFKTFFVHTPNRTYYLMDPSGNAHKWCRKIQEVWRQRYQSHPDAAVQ

[8] = target: Phosphatidylinositol 4,5-bisphosphate 3-kinase catalytic subunit beta isoform (Homo sapiens, UniProt P42338); experiment: Inhibition of PI3K beta (unknown origin)
[9] = target: Aurora kinase C (Homo sapiens) (UniProt Q9UQB9); experiment: Inhibition of AURKC (unknown origin) assessed as enzyme activity at 1 uM using 33P ATP by radioactive filter binding assay; parameters: scale not given: the % may be the effect or the level left
Sequence of Aurora kinase C (Homo sapiens) (Q9UQB9 whole entry, the tested form may be a part): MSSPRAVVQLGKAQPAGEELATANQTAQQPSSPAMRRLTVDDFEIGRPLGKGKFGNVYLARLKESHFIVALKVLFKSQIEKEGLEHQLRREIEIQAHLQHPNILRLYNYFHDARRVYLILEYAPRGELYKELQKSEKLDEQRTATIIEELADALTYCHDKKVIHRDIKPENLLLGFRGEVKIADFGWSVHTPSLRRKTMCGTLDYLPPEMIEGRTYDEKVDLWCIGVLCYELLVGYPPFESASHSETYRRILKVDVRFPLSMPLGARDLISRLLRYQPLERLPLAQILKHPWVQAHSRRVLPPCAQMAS

[10] = target: Serine/threonine-protein kinase Chk2 (Homo sapiens) (UniProt O96017); experiment: Inhibition of human CHK2 (5 to 543 residues) assessed as enzyme activity at 1 uM using 33P ATP by radioactive filter binding assay; parameters: scale not given: the % may be the effect or the level left
Sequence of Serine/threonine-protein kinase Chk2 (Homo sapiens) (O96017 whole entry, the tested form may be a part): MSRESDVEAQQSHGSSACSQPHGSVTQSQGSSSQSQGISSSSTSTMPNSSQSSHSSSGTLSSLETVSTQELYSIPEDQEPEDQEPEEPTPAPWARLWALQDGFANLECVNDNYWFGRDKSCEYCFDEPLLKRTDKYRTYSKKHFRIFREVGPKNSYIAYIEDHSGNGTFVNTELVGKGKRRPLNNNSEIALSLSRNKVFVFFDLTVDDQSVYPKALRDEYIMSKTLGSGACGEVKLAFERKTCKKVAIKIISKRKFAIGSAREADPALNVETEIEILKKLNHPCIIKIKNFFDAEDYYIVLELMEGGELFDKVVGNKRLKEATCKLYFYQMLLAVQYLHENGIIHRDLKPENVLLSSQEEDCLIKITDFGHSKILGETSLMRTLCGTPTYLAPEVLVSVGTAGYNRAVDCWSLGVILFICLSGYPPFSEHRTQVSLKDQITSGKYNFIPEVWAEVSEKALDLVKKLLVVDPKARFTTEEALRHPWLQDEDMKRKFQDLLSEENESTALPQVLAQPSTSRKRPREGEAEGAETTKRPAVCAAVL

[11] = target: Insulin-like growth factor 1 receptor (Homo sapiens) (UniProt P08069); experiment: Inhibition of human IGF1R (954 to 1367 residues) assessed as enzyme activity at 1 uM using 33P ATP by radioactive filter binding assay; parameters: scale not given: the % may be the effect or the level left
Sequence of Insulin-like growth factor 1 receptor (Homo sapiens) (P08069 31-736 limits assumed): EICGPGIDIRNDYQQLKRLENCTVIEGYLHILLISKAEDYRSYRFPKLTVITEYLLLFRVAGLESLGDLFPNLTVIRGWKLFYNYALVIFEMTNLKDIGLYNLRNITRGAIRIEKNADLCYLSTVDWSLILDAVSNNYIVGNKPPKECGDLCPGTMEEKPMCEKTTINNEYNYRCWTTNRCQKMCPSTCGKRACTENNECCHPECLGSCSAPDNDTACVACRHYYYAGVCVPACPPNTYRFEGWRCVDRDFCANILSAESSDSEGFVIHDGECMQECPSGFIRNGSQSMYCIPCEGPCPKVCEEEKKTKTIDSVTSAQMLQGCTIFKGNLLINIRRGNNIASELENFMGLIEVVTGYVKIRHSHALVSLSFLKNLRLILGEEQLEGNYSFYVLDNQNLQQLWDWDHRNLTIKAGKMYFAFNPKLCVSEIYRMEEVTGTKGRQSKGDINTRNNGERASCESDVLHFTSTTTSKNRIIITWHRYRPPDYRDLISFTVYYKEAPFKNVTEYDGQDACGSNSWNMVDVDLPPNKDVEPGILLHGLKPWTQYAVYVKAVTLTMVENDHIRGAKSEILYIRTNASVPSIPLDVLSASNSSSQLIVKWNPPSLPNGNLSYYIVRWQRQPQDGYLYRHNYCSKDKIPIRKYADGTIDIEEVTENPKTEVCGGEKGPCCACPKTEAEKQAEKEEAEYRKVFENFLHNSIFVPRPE
Sequence of Insulin-like growth factor 1 receptor (Homo sapiens) (P08069 741-1367 limits assumed): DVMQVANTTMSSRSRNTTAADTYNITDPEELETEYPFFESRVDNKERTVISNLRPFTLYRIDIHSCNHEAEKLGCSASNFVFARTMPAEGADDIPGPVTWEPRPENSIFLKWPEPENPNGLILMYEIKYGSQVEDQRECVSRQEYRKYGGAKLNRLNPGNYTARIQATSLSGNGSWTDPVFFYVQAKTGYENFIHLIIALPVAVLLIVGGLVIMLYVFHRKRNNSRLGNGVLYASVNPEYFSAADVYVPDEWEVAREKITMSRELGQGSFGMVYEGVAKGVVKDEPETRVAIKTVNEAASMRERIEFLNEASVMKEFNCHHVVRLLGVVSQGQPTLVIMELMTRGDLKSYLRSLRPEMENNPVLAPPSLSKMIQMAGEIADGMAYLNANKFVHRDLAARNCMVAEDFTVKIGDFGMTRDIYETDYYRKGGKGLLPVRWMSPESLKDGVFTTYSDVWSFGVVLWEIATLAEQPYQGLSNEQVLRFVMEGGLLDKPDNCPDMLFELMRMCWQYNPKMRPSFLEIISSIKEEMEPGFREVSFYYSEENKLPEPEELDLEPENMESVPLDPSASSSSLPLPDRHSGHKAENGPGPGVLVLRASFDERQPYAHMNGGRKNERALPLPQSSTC

[12] = target: Serine/threonine-protein kinase TAO1 (Homo sapiens) (UniProt Q7L7X3); experiment: Inhibition of human TAO1 (1 to 356 residues) assessed as enzyme activity at 1 uM using 33P ATP by radioactive filter binding assay; parameters: scale not given: the % may be the effect or the level left
[13] = target: T1, 3-phosphoinositide-dependent protein kinase 1; experiment: Inhibition of human PDK1
[14] = target: Mitogen-activated protein kinase kinase kinase 5 (Homo sapiens) (UniProt Q99683); experiment: Inhibition of human ASK1 (670 to 950 residues) assessed as enzyme activity at 1 uM using 33P ATP by radioactive filter binding assay; parameters: scale not given: the % may be the effect or the level left
[15] = target: Casein kinase II subunit alpha (Homo sapiens) (UniProt P68400); experiment: Inhibition of human CK2alpha (2 to 391 residues) assessed as enzyme activity at 1 uM using 33P ATP by radioactive filter binding assay; parameters: scale not given: the % may be the effect or the level left
[16] = target: T2, Ephrin type-B receptor 3 (Homo sapiens) (UniProt P54753); experiment: Inhibition of human EPHB3 (561 to 998 residues) assessed as enzyme activity at 1 uM using 33P ATP by radioactive filter binding assay; parameters: scale not given: the % may be the effect or the level left
T2 sequence (whole entry): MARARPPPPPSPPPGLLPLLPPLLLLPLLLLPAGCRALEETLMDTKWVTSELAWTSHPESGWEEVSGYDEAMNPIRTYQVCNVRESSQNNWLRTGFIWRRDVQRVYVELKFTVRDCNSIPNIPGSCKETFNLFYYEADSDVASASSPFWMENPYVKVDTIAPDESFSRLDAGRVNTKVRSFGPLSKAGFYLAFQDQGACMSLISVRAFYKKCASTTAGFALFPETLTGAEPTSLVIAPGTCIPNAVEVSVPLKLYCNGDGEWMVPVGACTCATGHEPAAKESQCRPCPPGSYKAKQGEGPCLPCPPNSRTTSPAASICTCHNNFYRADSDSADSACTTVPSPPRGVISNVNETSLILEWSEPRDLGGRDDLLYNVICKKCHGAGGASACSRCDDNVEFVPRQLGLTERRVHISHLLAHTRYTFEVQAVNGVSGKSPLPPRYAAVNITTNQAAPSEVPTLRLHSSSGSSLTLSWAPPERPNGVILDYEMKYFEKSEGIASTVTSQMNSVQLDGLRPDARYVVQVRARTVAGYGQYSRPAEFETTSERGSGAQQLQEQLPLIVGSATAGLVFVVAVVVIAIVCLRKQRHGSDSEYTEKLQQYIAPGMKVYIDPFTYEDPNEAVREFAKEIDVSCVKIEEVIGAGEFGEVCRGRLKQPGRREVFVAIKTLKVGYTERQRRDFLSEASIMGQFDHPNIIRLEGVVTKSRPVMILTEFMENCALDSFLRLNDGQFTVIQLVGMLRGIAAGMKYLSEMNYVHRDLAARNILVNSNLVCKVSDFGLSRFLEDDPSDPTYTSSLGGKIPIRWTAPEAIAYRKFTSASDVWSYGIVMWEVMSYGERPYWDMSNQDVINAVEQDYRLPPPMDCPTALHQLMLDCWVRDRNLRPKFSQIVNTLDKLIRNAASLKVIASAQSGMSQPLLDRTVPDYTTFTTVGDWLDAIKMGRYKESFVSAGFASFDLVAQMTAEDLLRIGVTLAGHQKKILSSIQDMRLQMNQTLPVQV

[17] = Intrinsic clearance in human liver microsomes; format: ADME; conditions: read-out: CLH
[18] = Intrinsic clearance in mouse liver microsomes; format: ADME; conditions: read-out: CLH
[19] = Permeability across apical to basolateral side in human Caco2 cells; format: ADME, cell-based; conditions: Caco-2

Sequence of Homeodomain-interacting protein kinase 3 (Homo sapiens) (Q9H422 whole entry, looked up, the tested form may be a part): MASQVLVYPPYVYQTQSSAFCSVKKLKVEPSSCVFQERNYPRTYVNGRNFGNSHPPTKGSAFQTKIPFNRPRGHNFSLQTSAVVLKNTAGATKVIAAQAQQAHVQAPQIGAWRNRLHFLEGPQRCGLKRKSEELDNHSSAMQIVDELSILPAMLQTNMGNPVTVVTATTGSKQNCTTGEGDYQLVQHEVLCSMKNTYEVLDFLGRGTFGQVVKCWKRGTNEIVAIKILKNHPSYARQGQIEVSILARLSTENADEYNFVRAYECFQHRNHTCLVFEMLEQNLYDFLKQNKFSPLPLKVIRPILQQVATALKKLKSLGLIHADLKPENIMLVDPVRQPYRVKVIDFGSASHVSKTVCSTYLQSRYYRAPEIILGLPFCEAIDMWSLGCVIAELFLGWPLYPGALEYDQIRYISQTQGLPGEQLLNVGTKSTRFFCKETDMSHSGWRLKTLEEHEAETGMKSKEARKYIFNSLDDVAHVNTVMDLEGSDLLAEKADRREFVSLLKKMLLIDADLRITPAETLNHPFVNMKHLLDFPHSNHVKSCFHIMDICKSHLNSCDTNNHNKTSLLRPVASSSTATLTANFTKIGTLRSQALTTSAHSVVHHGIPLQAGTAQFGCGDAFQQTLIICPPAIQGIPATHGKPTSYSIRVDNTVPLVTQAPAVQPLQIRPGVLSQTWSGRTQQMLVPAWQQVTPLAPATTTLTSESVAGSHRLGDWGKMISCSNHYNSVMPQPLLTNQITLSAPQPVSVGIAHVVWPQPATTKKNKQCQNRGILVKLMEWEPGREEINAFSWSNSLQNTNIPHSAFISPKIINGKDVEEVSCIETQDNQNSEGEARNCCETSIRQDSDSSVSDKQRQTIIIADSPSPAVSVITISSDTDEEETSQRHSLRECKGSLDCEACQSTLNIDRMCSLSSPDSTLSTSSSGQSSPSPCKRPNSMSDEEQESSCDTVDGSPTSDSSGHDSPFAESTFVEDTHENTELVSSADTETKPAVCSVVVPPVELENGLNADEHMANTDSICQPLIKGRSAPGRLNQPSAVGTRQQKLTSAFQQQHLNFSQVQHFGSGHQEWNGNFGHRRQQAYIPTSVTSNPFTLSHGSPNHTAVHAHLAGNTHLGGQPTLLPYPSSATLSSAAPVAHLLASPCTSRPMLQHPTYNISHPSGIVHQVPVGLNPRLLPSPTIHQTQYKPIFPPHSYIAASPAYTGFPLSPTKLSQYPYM

Row | Activity [1] [%] | Activity [2] [%] | Activity [3] [%] | Activity [4] [%] | Activity [5] [%] | Activity [6] [%] | IC50 [7] [µM] | IC50 [8] [µM] | Activity [9] [%] | Activity [10] [%] | Activity [11] [%] | Activity [12] [%] | IC50 [13] [µM] | Activity [14] [%] | Activity [15] [%] | Activity [16] [%] | microsomal CLint [17] [µL/min/mg] | microsomal CLint [18] [µL/min/mg] | Papp A→B [19] [×10⁻⁶ cm/s] | Structure (SMILES)
1 | -52 | 1 | 13 | 17 | 4 | -54 | 1.1 | > 10 | -15 | -44 |  |  |  |  |  |  |  |  |  | CCCCc1cc(-c2c[nH]c3ncccc23)nc(N)n1
2 | -69 | -11 | -8 | -8 | -2 | -66 | 5.9 |  | -3 | -37 | -2 | -15 | 5.9 | -4 | -3 | 28 |  |  |  | Nc1nccc(-c2c[nH]c3ncccc23)n1 [MERIOLIN 1]
3 |  |  | -23 |  |  | -42 | 0.084 | > 30 |  | -92 | -27 |  |  |  |  | -25 | < 10 | < 10 | 0.3 | CCCCc1cc(-c2c[nH]c3ncc(-c4cnn(C5CCNCC5)c4)cc23)nc(N)n1
4 |  |  | -3 |  |  | -38 | 0.058 |  |  | -81 | -34 |  |  |  |  | -19 | < 10 | < 10 | 1.3 | CCc1cc(-c2c[nH]c3ncc(-c4cnn(C5CCNCC5)c4)cc23)nc(N)n1
